The subject of this experiment is HT-1080 (ATCC, CCL-121) cells. Put plainly: HT-1080 cell viability assay with ferroptosis inducer RSL3 (Cell Titer-Glo). The note with it: Homo sapiens, HT-1080 cells treated with RSL3, 3-fold, 10-point dilution, 1.1 μM highest concentration, read-out: EC50 (nM), ferroptosis inhibitory activity. It is filed as cell-based. In short, it runs like this:
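HT-1080 cells (6000 per well) were cultured overnight at 37 °C, then co-treated with RSL3 and compound in a 3-fold, 10-point series topping at 1.1 μM. Viability was read by CellTiter-Glo luminescence and normalized to untreated controls. EC50 came from a sigmoidal non-linear regression fit.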

Structures are written as SMILES. Read-outs that look alike come from different tables or passages of the source.

Data on 36 compounds can be found in patent US20240327393A1 (SIRONAX LTD., priority 2021, published 2024).

Turning to `Cc1cc(N2CCC(C)CC2)ccc1Nc1ccc2c(c1)OCC(=O)N2C` [Compound 490, 4-methyl-7-((2-methyl-4-(4-methylpiperidin-1-yl)phenyl)amino)-2H-benzo[b][1,4]oxazin-3(4H)-one], the EC50 (Table 3) lay within 0.1 to 100 nM.
In the case of `CC1CCN(c2ccc(Nc3ccc4ncn(C)c4c3)cc2)CC1` [Compound 270, 1-methyl-N-(4-(4-methylpiperidin-1-yl)phenyl)-1H-benzo[d]imidazol-6-amine], the EC50 (Table 2) is 0.1 to 100 nM.
Turning to `Cn1ncc2cc(Nc3ccc(N4CCC(C(F)(F)F)CC4)cc3)ccc21` [Compound 364, 1-methyl-N-(4-(4-(trifluoromethyl)piperidin-1-yl)phenyl)-1H-indazol], the EC50 (Table 2) is 0.1 to 100 nM.
Consider `CCN1Cc2ccc(Nc3ccc(N4CCC(F)(F)CC4)cc3)cc2C1` [Compound 167, N-(4-(4,4-difluoropiperidin-1-yl)phenyl)-2-ethylisoindolin-5-amine], for which the EC50 (Table 2) lay within 0.1 to 100 nM.
With `Cc1cc(N2CC(OC(F)(F)F)C2)ccc1Nc1ccc2c(c1)OCC(=O)N2` [Compound 621, 7-((2-methyl-4-(3-(trifluoromethoxy)azetidin-1-yl)phenyl)amino)-2H-benzo[b][1,4]oxazin-3(4H)-one], the EC50 (Table 3) was in the range of 0.1 to 100 nM.
Take `Cc1cc(N2CCC(C(F)(F)F)CC2)c(F)cc1Nc1ccc2c(c1)OCC(=O)N2C` [Compound 59, 7-((5-fluoro-2-methyl-4-(4-(trifluoromethyl)piperidin-1-yl)phenyl)amino)-4-methyl-2H-benzo[b][1,4]oxazin-3(4H)-one]: the EC50 (Table 2) was 0.1 to 100 nM.
For the compound `Cn1c(=O)n(CCN2CCCC2=O)c2ccc(Nc3ccc(N4CCC(C(F)(F)F)CC4)cc3)cc21` [Compound 367, 3-methyl-1-(2-(2-oxopyrrolidin-1-yl)ethyl)-5-((4-(4-(trifluoromethyl)piperidin-1-yl)phenyl)amino)-1,3-dihydro-2H-benzo[d]imidazol-2-one], the EC50 (Table 2) lay within 0.1 to 100 nM.
On to `Cn1c(=O)c(=O)n(C)c2cc(Nc3ccc(N4CCC(C(F)(F)F)CC4)cc3)ccc21` [Compound 110, 1,4-dimethyl-6-((4-(4-(trifluoromethyl)piperidin-1-yl)phenyl)amino)-1,4-dihydroquinoxaline-2,3-dione], for which, for the setting “Table 2”, the EC50 is 0.1 to 100 nM.
With `Cc1cc(N2C[C@@H](C)O[C@@H](C)C2)ccc1Nc1ccc2cnn(C)c2c1` [Compound 638, N-(4-((2S,6R)-2,6-dimethylmorpholino)-2-methylphenyl)-1-methyl-1H-indazol-6-amine], the EC50 (Table 3) was 0.1 to 100 nM.
As to `CC1CCN(c2ccc(Nc3ccc4c(c3)n(C)c(=O)n4C)cc2F)CC1` [Compound 283, 5-((3-fluoro-4-(4-methylpiperidin-1-yl)phenyl)amino)-1,3-dimethyl-1,3-dihydro-2H-benzo[d]imidazol-2-one], the EC50 (Table 2) fell in the range of 0.1 to 100 nM.
Take `Cc1cc(N2CCCCC2)ccc1Nc1ccc2c(c1)OCC(=O)N2C` [Compound 506]: the EC50 (Table 3) was 0.1 to 100 nM.
In the case of `Cn1c(=O)n(C)c2cc(Nc3ccc(N4CCC(C(F)(F)F)CC4)nc3)ccc21` [Compound 362, 1,3-dimethyl-5-((6-(4-(trifluoromethyl)piperidin-1-yl)pyridin-3-yl)amino)-1,3-dihydro-2H-benzo[d]imidazol-2-one], the EC50 (Table 2) fell in the range of 0.1 to 100 nM.
Regarding `CCC(C)(C)c1ccc(Nc2ccc3c(c2)OCC(=O)N3C)cc1` [Compound 38, 4-methyl-7-((4-(tert-pentyl)phenyl)amino)-2H-benzo[b][1,4]oxazin-3(4H)-one], under “Table 2”, the EC50 was in the range of 0.1 to 100 nM.
For the compound `Cn1c(NCC2CC2)cc2ccc(Nc3ccc(N4CCC(C(F)(F)F)CC4)cc3)cc21` [Compound 396, N2-(cyclopropylmethyl)-1-methyl-N6-(4-(4-(trifluoromethyl)piperidin-1-yl)phenyl)-1H-indole-2,6-diamine], the EC50 (Table 2) was in the range of 0.1 to 100 nM.
Regarding `Cc1nc(N2CC(C)OC(C)(C)C2)ccc1Nc1ccc2c(c1)OCC(=O)N2` (stereo not drawn) [Compound 520, 7-((2-methyl-6-(2,2,6-trimethylmorpholino)pyridin-3-yl)amino)-2H-benzo[b][1,4]oxazin-3(4H)-one], the EC50 (Table 3) was 0.1 to 100 nM.
With `O=C1CCOc2cc(Nc3ccc(N4CCC(C(F)(F)F)CC4)cc3)ccc2N1` [Compound 534, 8-((4-(4-(trifluoromethyl)piperidin-1-yl)phenyl)amino)-2,3-dihydrobenzo[b][1,4]oxazepin-4(5H)-one], where the note is “Table 3”, the EC50 was in the range of 0.1 to 100 nM.
Turning to `CN1C(=O)COc2cc(Nc3ccc(OCCCF)cc3)ccc21` [Compound 13, 7-((4-(3-fluoropropoxy)phenyl)amino)-4-methyl-2H-benzo[b][1,4]oxazin-3(4H)-one], where the note is “Table 2”, the EC50 lay in the range of 0.1 to 100 nM.
Turning to `Cc1cc(N2CC(C)OC(C)C2)ccc1Nc1ccc2oc(=O)n(C)c2c1` (stereo not drawn) [Compound 446, 5-((4-(2,6-dimethylmorpholino)-2-methylphenyl)amino)-3-methylbenzo[d]oxazol-2(3H)-one], the EC50 (Table 2) is 0.1 to 100 nM.
As for `CN1C(=O)COc2cc(Nc3cc(F)c(N4CCC(O)(C(F)(F)F)CC4)c(F)c3)ccc21` [Compound 160, 7-((3,5-difluoro-4-(4-hydroxy-4-(trifluoromethyl)piperidin-1-yl)phenyl)amino)-4-methyl-2H-benzo[b][1,4]oxazin-3(4H)-one], the EC50 (Table 2) fell in the range of 0.1 to 100 nM.
`Cc1cc(N2CC(F)C2)ccc1Nc1ccc2c(c1)OCC(=O)N2` [Compound 572, 7-(4-(3-fluoroazetidin-1-yl)-2-methylphenylamino)-2H-benzo[b][1,4]oxazin-3(4H)-one]: the EC50 (Table 3) is 0.1 to 100 nM.
For `Cn1c(=O)oc2cc(Nc3ccc(N4CCC(O)(C(F)(F)F)CC4)cc3)ccc21` [Compound 333, 6-((4-(4-hydroxy-4-(trifluoromethyl)piperidin-1-yl)phenyl)amino)-3-methylbenzo[d]oxazol-2(3H)-one], the EC50 (Table 2) is 0.1 to 100 nM.
Regarding `CCC1CN(c2ccc(Nc3ccc4c(c3)OCC(=O)N4)c(C)n2)CCO1` (stereo not drawn) [Compound 498, 7-((6-(2-ethylmorpholino)-2-methylpyridin-3-yl)amino)-2H-benzo[b][1,4]oxazin-3(4H)-one], where the note is “Table 3”, the EC50 fell in the range of 0.1 to 100 nM.
On to `Cc1cc(N2CCC(C(F)(F)F)CC2)ccc1Nc1ccc2c(c1)SCC(=O)N2` [Compound 593, 7-((2-methyl-4-(4-(trifluoromethyl)piperidin-1-yl)phenyl)amino)-2H-benzo[b][1,4]thiazin-3(4H)-one], for which the EC50 (Table 3) fell in the range of 0.1 to 100 nM.
In the case of `Cc1cc(N2CC(F)(F)C2)ccc1Nc1ccc2c(c1)OCC(N)C(=O)N2` (stereo not drawn) [Compound 627, 3-amino-8-((4-(3,3-difluoroazetidin-1-yl)-2-methylphenyl)amino)-2,3-dihydrobenzo[b][1,4]oxazepin-4(5H)-one], the EC50 (Table 3) is 0.1 to 100 nM.
For `NC(=O)NCCn1ncc2cc(Nc3ccc(N4CCC(C(F)(F)F)CC4)cc3)ccc21` [Compound 421, 1-(2-(5-((4-(4-(trifluoromethyl)piperidin-1-yl)phenyl)amino)-1H-indazol-1-yl)ethyl)urea], the EC50 (Table 2) was in the range of 0.1 to 100 nM.
On the same count and under the same terms, with `CC1CN(c2ccc(Nc3ccc4c(c3)n(C)c(=O)n4CCN(C)C)cc2)CC(C)O1` (stereo not drawn) [Compound 426, 1-(2-(dimethylamino)ethyl)-5-((4-(2,6-dimethylmorpholino)phenyl)amino)-3-methyl-1,3-dihydro-2H-benzo[d]imidazol-2-one] the figure was 0.1 to 100 nM.
Turning to `Cn1ccc2ccc(Nc3ccc(N4CCC(C(F)(F)F)CC4)cc3)cc21` [Compound 348, 1-methyl-N-(4-(4-(trifluoromethyl)piperidin-1-yl)phenyl)-1H-indol-6-amine], the EC50 (Table 2) fell in the range of 0.1 to 100 nM.
Take `COc1cc(Nc2ccc3c(c2)CN(C)C3=O)ccc1N1CCC(C(F)(F)F)CC1` [Compound 243, 5-((3-methoxy-4-(4-(trifluoromethyl)piperidin-1-yl)phenyl)amino)-2-methylisoindolin-1-one]: the EC50 (Table 2) lay within 0.1 to 100 nM.
For `Cc1cc(Nc2ccc3c(c2)n(C)c(=O)n3C)ccc1N1CCC(C)CC1` [Compound 282, 1,3-dimethyl-5-((3-methyl-4-(4-methylpiperidin-1-yl)phenyl)amino)-1,3-dihydro-2H-benzo[d]imidazol-2-one], for the setting “Table 2”, the EC50 was in the range of 0.1 to 100 nM.
`Cc1cc(N2CCC(C(F)(F)F)CC2)ccc1Nc1ccc2c(c1)C(C)(C)C(=O)N2` [Compound 514, 3,3-dimethyl-5-((2-methyl-4-(4-(trifluoromethyl)piperidin-1-yl)phenyl)amino)indolin-2-one]: for the setting “Table 3”, the EC50 lay within 0.1 to 100 nM.
`Cn1cnc2cc(Nc3ccc(N4CCC(C(F)(F)F)CC4)cc3)ccc21` [Compound 336, 1-methyl-N-(4-(4-(trifluoromethyl)piperidin-1-yl)phenyl)-1H-benzo[d]imidazol-5-amine]: the EC50 (Table 2) fell in the range of 0.1 to 100 nM.
In the case of `COc1cc(Nc2ccc3c(c2)OCC(=O)N3C)ccc1N1CC(C)OC(C)C1` (stereo not drawn) [Compound 70, 7-((4-(2,6-dimethylmorpholino)-3-methoxyphenyl)amino)-4-methyl-2H-benzo[b][1,4]oxazin-3(4H)-one], where the note is “Table 2”, the EC50 lay within 0.1 to 100 nM.
For the compound `Cc1nc(N2CCC(C(F)(F)F)CC2)ccc1Nc1ccc2c(c1)OCC(=O)N2` [Compound 489, 7-((2-methyl-6-(4-(trifluoromethyl)piperidin-1-yl)pyridin-3-yl)amino)-2H-benzo[b][1,4]oxazin-3(4H)-one], the EC50 (Table 3) lay within 0.1 to 100 nM.
For `COc1cc(N2CCC(C)CC2)cc(F)c1Nc1ccc2c(c1)n(C)c(=O)n2C` [Compound 272, 5-((2-fluoro-6-methoxy-4-(4-methylpiperidin-1-yl)phenyl)amino)-1,3-dimethyl-1,3-dihydro-2H-benzo[d]imidazol-2-one], the EC50 (Table 2) fell in the range of 0.1 to 100 nM.
For the compound `CCn1c2cc(Nc3ccc(N4CCC(C(F)(F)F)CC4)cc3)ccc2c(=O)n1C` [Compound 218, 1-ethyl-2-methyl-6-((4-(4-(trifluoromethyl)piperidin-1-yl)phenyl)amino)-1,2-dihydro-3H-indazol-3-one], the EC50 (Table 2) lay within 0.1 to 100 nM.
As to `CN1C(=O)COc2cc(Nc3ccc(C(C)(C)C)cc3)ccc21` [Compound 47, 7-((4-(tert-butyl)phenyl)amino)-4-methyl-2H-benzo[b][1,4]oxazin-3(4H)-one], the EC50 (Table 2) is 0.1 to 100 nM.

By EC50 is commonly meant the concentration that produces a half-maximal response.
